Assay results taken from US11260050B2, “Combination of cotinine plus antioxidant for treatment-resistant depression and correction of astrocytes functional deficit induced by depression and other neuropathological” (UNIVERSIDAD SAN SEBASTIAN, priority 2017, dated 2022).

What was measured:
GFAP = GFAP immunofluorescence, morphometric analysis and cell counting in the dentate gyrus (Example 3); assay type: in vivo, C57BL/6J mice; conditions: restrained mice, oral co-treatment; vs vehicle-treated restrained mice
Procedure: For the immunohistochemistry (IHC) and fluorescent IHC (F-IHC) analysis the right hemisphere of each mouse brain was placed in 4% paraformaldehyde in PBS pH 7.4 at 4° C. for 24 h. The tissues were embedded in 2% agarose molds for vibratome sectioning.
For the F-IHC, samples were washes 3 times for 7 min with Tris-buffered saline (TBS), pH 7.8. The primary antibody anti-GFAP (1:50, BioSB) was diluted in diluent buffer, containing TBS supplemented with 1% bovine serum albumin (BSA) and 0.2% Triton X-100, and incubated with the tissue sections overnight (ON) at 4° C. […] The samples were counterstained with Hoechst (1:1000) and mounted with fluorescence mounting medium (Prolong, Invitrogen). […]
In each image, a region of interest (ROI) that represented the dentate gyrus was determined using free-hand drawing. For each ROI, the mean gray values (MGV), representing the area fraction with immunoreactivity for GFAP, were measured. To measure the fluorescence intensity of GFAP immunostaining in the dentate gyrus, maximum intensity projections of confocal z-stacks acquired from sagittal brain sections were converted into 8-bit greyscale images with 256 scales (pixel intensity 0 corresponding to no signal and 255 to maximal signal) by ImageJ software. […] For the GFAP+ cell counting, cell to be counted must had at least half of the cell nucleus visible on the edge of the ROI and cells were not included in the analysis if they were adherent to blood vessel walls.

conditioned mice = experiment: Forced swim test after fear conditioning and extinction (Example 4); assay type: in vivo, Mice C57BL/6; conditions: FC mice after extinction; Tukey: cotinine p<0.001, combination p<0.005, sertraline p<0.05
Procedure: Three-month-old mice (n=5-6/condition) were weighed and assigned to treatment groups. Mice were treated with vehicle or drugs, starting two h after fear conditioning and daily after behavioral testing until euthanasia. Mice received daily treatments with 1. PBS (phosphate buffer saline, pH 7.4) via intranasal; 2. Cotinine (10 mg/ml) dissolved in PBS via intranasal (IN Cot, 24 μl); 3. Krill oil dissolved in PBS, via intranasal (48 mg/ml, 24 μl); 4. Cotinine (10 mg/ml) plus krill oil dissolved in PBS, via intranasal (48 mg/ml, 24 μl); 5.
For intranasal delivery, mice were hand-restrained, placed in a supine position, and given two 12 μl drops of cotinine solutions, or PBS, into both nares consecutively. Mice were given an extra 12 μl treatment drop if the subject forcibly ejected or sneezed out the solution. Mice were held supine for 5-10 seconds after delivery to ensure that all fluid was inhaled.

restrained mice [1] = experiment: Forced swim test, oral co-treatment during restraint stress (Example 3); assay type: in vivo, C57BL/6J mice; conditions: oral cotinine 5 mg/kg, KO 143 mg/kg or both, vs vehicle-treated restrained mice
Procedure: Mice after acclimatization and one week of handling were randomly divided into five groups (n=8/condition) and orally treated as follow: 1) control non-restrained mice treated with vehicle (PBS, pH 7.4); 2) restrained mice treated with vehicle; 3), restrained mice treated with a cotinine solution (5 mg/kg in PBS, pH 7.4) via gavage; 4) restrained mice treated with KO (143 mg/kg); 5) restrained mice treated with cotinine plus KO solution. Mice were started with treatments, the first day of restraint and continuously until euthanasia. Treatments were administered at the same time of the day, 30 min before restraint. After 21 days into treatments, mice were behaviorally tested (FIG. 17).
Restraint stress (RS) was used as a model of chronic stress-induced depressive-like behavior and cognitive impairment. We used this task because is a reliable method that mimics the effects of chronic stress without causing physical pain or unnecessary discomfort to the mice. Mice were gently introduced into a 50-ml conical transparent plastic tubes (Corning Inc.). The tubes contain non-protruding perforations in both ends and in the walls to permit ventilation and only permitted slight movements. […]
The forced swim (FS) is a broadly used task to assess depressive-like behavior in rodents. […] Immobility time was recorded and quantified by two investigators blind to the treatment groups.

restrained mice [2] = experiment: Novel object recognition after chronic restraint stress (Example 2); assay type: in vivo, C57BL/6 male mice; conditions: stressed mice, IN cotinine vs vehicle
Procedure: Mice between 2-3 months of age after one week of acclimatization were randomly divided into two groups. Stressed mice were subjected to restraint stress. Control (non-restrained) mice were allowed to move freely during this period. After the stress exposure period, mice were divided into three experimental groups: 1) Non-restrained mice treated with vehicle (PBS, pH 7.4) serving as unstressed controls (n=8); 2) Restrained mice (RS) treated with vehicle (n=8); 3), RS mice treated with 24 μl of a cotinine solution (10 mg/ml in PBS, pH 7.4) via intranasal route of administration (n=6). Treatments were administered daily until euthanasia. After two weeks of treatments mice were behaviorally tested and euthanized (FIG. 10)
Intranasal delivery was performed as previously described (Hanson and Frey, 2007). Mice at 2-3 months of age were hand-restrained, positioned in a supine position, and administered two 12 μl drops of cotinine solution (10 mg/ml in PBS), or PBS alone, into both nares. Mice were given an extra 12 μl treatment drop if the mouse expelled out the solution. Mice were kept in the supine posture for 5 seconds after delivery to facilitate the delivery. […]
The NOR test starts with a habituation step that consists in putting each mouse to freely explore an open and empty testing arena (40 cm×40 cm×35 cm) for 10 min. […] The time exploring the objects was recorded during 5 min in both steps. […]

restrained C57BL/6 mice = conditions: oral cotinine administered before and continuously to restrained C57BL/6 mice; cited from earlier work
[3] = test system: mice subjected to restraint stress; experiment: Porsolt test, oral co-treatment during restraint stress (Example 1, Experiment 2); assay type: in vivo, C57BL/6 mice; conditions: RS mice, cotinine 5 mg/kg, KO, or mix, vs stressed vehicle
Procedure: Mice (n=5-8/condition) were treated via oral during and after restraint stress continuously until euthanasia.
Mice received daily treatments with
2. Cotinine dissolved in PBS via oral (gavage, (5 mg/kg; Cot 0.5)
3. Krill oil (KO) via oral (5 mg/ml in PBS, 50 μl) continuously from the beginning of the restraint stress until euthanasia.
To induce chronic stress, the restraint stress paradigm was used as previously described. Mice are immobilized in 50 ml falcon plastic tubes that were attached to mouse cages. The immobilization proceeded during 6 h from 9:00 AM to 3:00 PM in absence of treatments. Tubes have holes in the opposite side of the tube to allow the animal breathing and urination. Mice were almost completely immobilized for 6 h/day for 21 days after which they were permitted freely to move, eat and drink.
This test is used to measure the antidepressant effects of drugs, and consists in placing each mouse in a transparent cylinder filled with water at room temperature (RT). After a brief period of strong activity, rodents adopt a characteristic immobile posture. The time mice spent immobile is a measure of depressive-like behavior. The immobility time will be recorded during a 15-min and a next day 5-min trial. The time spent by each mouse immobile will be recorded.

CN1C(=O)CC[C@H]1c1cccnc1 [Cotinine, (5S)-1-methyl-5-(3-pyridyl) pyrrolidin-2-one]
mean gray value (GFAP IR intensity) in the dentate gyrus (GFAP): significant increase of the IR intensity
number of GFAP+ cells (cell density) in the dentate gyrus (GFAP): significant increase of cell density
percent area fraction occupied by GFAP+ cells in the dentate gyrus (GFAP): significant increase in the GFAP+ fraction area
depressive-like behavior (immobility) in the forced swim test (conditioned mice): significantly decreased depressive-like behavior
immobility in the forced swim test (restrained mice [1]): no significant differences
exploration index for the new object (NOR) (restrained mice [2]): increase in the exploration index when compared to vehicle-treated stressed mice but the difference did not reach statistical significance
number of entries to the novel object area (NOR) (restrained mice [2]; p<0.05): significantly higher number of entries to the novel object area
depressive-like behavior induced by stress (restrained C57BL/6 mice): substantively decreased depressive-like behavior induced by stress
depressive-like behavior (freezing behavior) in the Porsolt test [3]: non-significant decrease in depressive-like behavior
